From US10369123B2, “Perk activator for the treatment of neurodegenerative diseases” (DEUTSCHES ZENTRUM FÜR NEURODEGENERATIVE ERKRANKUNGEN E.V. …, priority 2014, dated 2019)
Entries after “also recorded” stand apart in the source; their conditions may differ.

Experiments:
[1] = test system: LUHMES neurons; assay: MTT assay, annonacin-treated LUHMES neurons; type: cell-based, human; details: annonacin + PERK activator 200 nM or PERK inhibitor 300 nM, 48 h, vs no PERK modulator
Method: (§1) Nunc™ Nunclon™ Delta 6-well (for protein and mRNA) or 48-well (for cell assays) plates (Thermo Fisher Scientific, Waltham, Mass., USA) were coated with 100 μg/ml poly-L-lysine (Sigma-Aldrich, St. Louis, Mo., USA) and 5 μg/ml fibronectin (Sigma-Aldrich). LUHMES (Lund Human Mesencephalic) cells, derived from human embryonic ventral mesencephalic cells by conditional immortalization (Tet-off v-myc over-expression) were seeded out in a concentration of 130,000 cells/cm^2 to achieve a confluence of 50%. They were then differentiated for 8 days in a medium of DMEM/F12 (Sigma-Aldrich), 1 μg/ml tetracycline, […] and 490 μg/ml dbcAMP into post-mitotic neurons with a dopaminergic phenotype (Lotharius et al. 2005).
(§2) For all experiments with annonacin, the medium was replaced during the intoxication period with new medium containing glucose levels reduced to 250 μM, i.e. the physiological concentration in the human brain.
Thiazolyl Blue Tetrazolium […] (MTT) (Sigma Aldrich) was dissolved in sterile PBS to a concentration of 5 mg/ml. This stock solution was added to the cells in culture medium to achieve a final concentration of 0.5 mg/ml. The 48-well culture plate was then incubated at 37° C. for 1 h, the medium removed completely and frozen at −80° C. for 1 h. The plate was then thawed, 300 μl DMSO (AppliChem, Darmstadt, Germany) was added per well and the plate was shaken to ensure complete dissolution of the violet crystals. 100 μl from each well were transferred to a new 96-well plate and the absorbance was read with the FLUOstar Omega (BMG Labtech) platereader at a wavelength of 590 nm (reference wave length 630 nm). The data was analyzed using the MARS Data Analysis Software (BMG Labtech) and Prism 6.

[2] = test system: LUHMES neurons overexpressing 4R-tau; assay: ATP assay, LUHMES neurons overexpressing 4R-tau; type: cell-based, human; details: lentiviral 4R-tau overexpression 10 days, co-administration of PERK modulator
Method: as §1, with “2005). […]” for “2005).”
Concentrated lentiviral particles were titrated by transducing LUHMES cells with different dilutions at 6 hours after initiating differentiation. The lowest dilution at which at least 90% of cells expressed the transgene (as determined by immunohistochemistry of the cells fixed on day 2 post differentiation) was chosen for subsequent experiments. […]
(§3) ATP assays were conducted using the ViaLight™ plus kit by Lonza according to the manufacturer's instructions. Luminescence was read with the FLUOstar Omega (BMG Labtech) platereader. The data was analyzed using the MARS Data Analysis Software (BMG Labtech) and Prism 6.

[3] = biological target: T1, PERK (Homo sapiens, UniProt Q9NZJ5); assay: Western blot for pEIF2A and pNRF2, lentiviral 3R/4R-tau overexpression model; type: cell-based; set-up: endogenous in cells; host or cells: LUHMES neurons (differentiated, human); in A5 transduced with lentivirus for 3R-/4R-tau or mCherry, not for PERK; details: for pNRF2 level: 4R-tau overexpressing cells, PERK activator 200 nM or PERK inhibitor 300 nM; for effect on pEIF2A and pNRF2: lentiviral 3R-tau overexpression
T1 sequence (Q9NZJ5 30-1116): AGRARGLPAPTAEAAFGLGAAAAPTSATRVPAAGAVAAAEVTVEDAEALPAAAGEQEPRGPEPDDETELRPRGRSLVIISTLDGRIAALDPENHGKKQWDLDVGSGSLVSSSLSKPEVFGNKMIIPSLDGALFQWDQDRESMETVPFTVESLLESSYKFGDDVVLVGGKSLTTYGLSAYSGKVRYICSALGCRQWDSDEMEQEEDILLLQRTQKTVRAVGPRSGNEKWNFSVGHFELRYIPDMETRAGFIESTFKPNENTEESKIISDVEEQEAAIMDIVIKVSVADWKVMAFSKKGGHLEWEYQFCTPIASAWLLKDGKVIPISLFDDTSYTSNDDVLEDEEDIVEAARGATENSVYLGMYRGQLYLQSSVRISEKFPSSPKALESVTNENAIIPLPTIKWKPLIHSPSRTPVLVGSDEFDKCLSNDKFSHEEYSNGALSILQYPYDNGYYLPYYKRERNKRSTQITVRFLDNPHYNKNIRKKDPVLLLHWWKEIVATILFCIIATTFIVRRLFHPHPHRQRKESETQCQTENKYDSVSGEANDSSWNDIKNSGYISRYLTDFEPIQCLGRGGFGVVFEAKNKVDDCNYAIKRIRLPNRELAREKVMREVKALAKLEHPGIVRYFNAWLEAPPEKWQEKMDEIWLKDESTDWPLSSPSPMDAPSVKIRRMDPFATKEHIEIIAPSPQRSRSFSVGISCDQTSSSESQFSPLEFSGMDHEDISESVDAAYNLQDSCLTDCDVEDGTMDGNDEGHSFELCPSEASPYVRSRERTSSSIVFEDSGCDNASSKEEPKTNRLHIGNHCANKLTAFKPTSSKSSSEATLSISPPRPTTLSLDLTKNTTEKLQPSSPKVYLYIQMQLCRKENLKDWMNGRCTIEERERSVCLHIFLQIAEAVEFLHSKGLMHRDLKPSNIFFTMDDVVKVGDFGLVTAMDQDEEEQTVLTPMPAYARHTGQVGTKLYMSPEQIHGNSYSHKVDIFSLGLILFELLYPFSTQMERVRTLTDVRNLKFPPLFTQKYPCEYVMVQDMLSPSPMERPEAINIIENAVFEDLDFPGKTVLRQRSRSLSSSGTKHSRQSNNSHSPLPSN

[4] = test system: LUHMES neurons; assay: ATP assay, annonacin-treated LUHMES neurons; type: cell-based, human; details: annonacin + PERK activator 200 nM or PERK inhibitor 300 nM, 48 h, vs no PERK modulator
Method: as §1, §2, §3

| SMILES | MTT test, effect of co-treatment [1] | 4R-specific toxicity in ATP assay [2] | pNRF2 level [3] | pEIF2A level ([3]; lentiviral 3R or 4R-tau overexpression, PERK activator 200 nM) | effect on pEIF2A and pNRF2 [3] | ATP concentration, effect of co-treatment [4] | pEIF2A level ([3]; 4R-tau overexpression, PERK inhibitor 300 nM) |
| --- | --- | --- | --- | --- | --- | --- | --- |
| CCN(CC)CCC(=O)N1N=C(c2c(-c3ccccc3)c3cc(Br)ccc3[nH]c2=O)CC1c1ccc(Br)cc1 (stereo not drawn) [CCT020312, 6-bromo-3-[5-(4-bromo-phenyl)-1-(3-diethylamino-propionyl)-4,5-dihydro-1H-pyrazol-3-yl]-4-phenyl-1H-quinolin-2-one] | significant improvement | reduced significantly | significantly increased | did not increase | no significant effect | significant improvement |  |
| Cn1cc(-c2ccc3c(c2)CCN3C(=O)Cc2cccc(C(F)(F)F)c2)c2c(N)ncnc21 [GSK2606414, reference compound] | did not significantly improve; also recorded: never significant | provided protection in the ATP assay, but to a lesser extent | not pNRF2 |  | no significant effect | slightly improved ATP concentrations at the single annonacin concentration of 12.5 nM; also recorded: significant only at an annonacin concentration of 12.5 nM | decreased |
